The values that follow come from patent publication US20240018145A1, “[…]-DEPENDENT EN[…] TREATING OR […]” (priority 2020, published 2024).

What is called EC50 is the concentration that produces a half-maximal response. A higher EC50 goes with a need for much substance.

The first experiment concerns FLU A (PR/8/34). Put plainly: Flu A Neuraminidase Antiviral Assay.
Settings: not given
The class given is cell-based.
Consider `CCC1(c2ccccc2)CCCC2N(C)C(=O)c3c(O)c(=O)ccn3N21` (single isomer, unassigned) [Compound 22A, 1-ethyl-7-hydroxy-5-methyl-1-phenyl-1,2,3,4,4a,5-hexahydrodipyrido[1,2-b:2′,1′-f][1,2,4]triazine-6,8-dione], for which the EC50 was > 8.1 µM.

`CN1C(=O)c2c(O)c(=O)ccn2N2C(c3ccccc3F)CCCC12` (single isomer, unassigned) [Compound 8B, 1-(2-fluorophenyl)-7-hydroxy-5-methyl-1,2,3,4,4a,5-hexahydrodipyrido[1,2-b:2′,1′-f][1,2,4]triazine-6,8-dione] gave an EC50 of 0.0656 µM. Turning to `CC1(c2nccs2)CCCC2N(CC(F)(F)F)C(=O)c3c(O)c(=O)ccn3N21` (single isomer, unassigned) [Compound 41A, 7-hydroxy-1-methyl-1-(thiazol-2-yl)-5-(2,2,2-trifluoroethyl)-1,2,3,4,4a,5-hexahydrodipyrido[1,2-b:2′,1′-f][1,2,4]triazine-6,8-dione], the EC50 was > 8.1 µM. `CN1C(=O)c2c(O)c(=O)ccn2N2C(c3ccc(Cl)c(F)c3)CCCC12` (single isomer, unassigned) [Compound 3B, 1-(4-chloro-3-fluorophenyl)-7-hydroxy-5-methyl-1,2,3,4,4a,5-hexahydrodipyrido[1,2-b:2′,1′-f][1,2,4]triazine-6,8-dione]: the EC50 was > 2.7 µM. On to `CN1C(=O)c2c(O)c(=O)ccn2N2C(c3ccccc3)C(CCC(F)(F)F)CCC12` (single isomer, unassigned) [Compound 128A, 7-hydroxy-5-methyl-1-phenyl-2-(3,3,3-trifluoropropyl)-1,2,3,4,4a,5-hexahydrodipyrido[1,2-b:2′,1′-f][1,2,4]triazine-6,8-dione], for which the EC50 worked out at 0.799 µM. Consider `CCC1(c2ccccc2)CCC2N(C)C(=O)c3c(O)c(=O)ccn3N21` (single isomer, unassigned) [Compound 62B, 1-ethyl-6-hydroxy-4-methyl-1-phenyl-2,3,3a,4-tetrahydro-1H-pyrido[2,1-f]pyrrolo[1,2-b][1,2,4]triazine-5,7-dione], for which the EC50 is > 8.1 µM. As to `CN1C(=O)c2c(O)c(=O)ccn2N2C(c3ccccc3C3CC3)C(CC(F)(F)F)CCC12` (single isomer, unassigned) [Compound 107B, 1-(2-cyclopropylphenyl)-7-hydroxy-5-methyl-2-(2,2,2-trifluoroethyl)-1,2,3,4,4a,5-hexahydrodipyrido[1,2-b:2′,1′-f][1,2,4]triazine-6,8-dione], a half-maximal response (EC50) required 0.0144 µM. Turning to `COc1ccccc1C1CCCC2N(C)C(=O)c3c(O)c(=O)ccn3N12` (single isomer, unassigned) [Compound 19A, 7-hydroxy-1-(2-methoxyphenyl)-5-methyl-1,2,3,4,4a,5-hexahydrodipyrido[1,2-b:2′,1′-f][1,2,4]triazine-6,8-dione], the concentration for a half-maximal effect (EC50) was > 8.1 µM. Regarding `CN1C(=O)c2c(O)c(=O)ccn2N2C1CCC1(CCC(F)(F)C1)C2c1ccccc1` (single isomer, unassigned) [Compound 68C, 3,3-difluoro-7′-hydroxy-5′-methyl-1′-phenyl-3′,4′,4a′,5′-tetrahydro-1′H-spiro[cyclopentane-1,2′-dipyrido[1,2-b:2′,1′-f][1,2,4]triazine]-6′,8′-dione], the EC50 amounted to 0.0114 µM. Take `O=C1c2c(O)c(=O)ccn2N2C(c3ccccc3)CCCC2N1CC1CC1` (single isomer, unassigned) [Compound 56C, 5-(cyclopropylmethyl)-7-hydroxy-1-phenyl-1,2,3,4,4a,5-hexahydrodipyrido[1,2-b:2′,1′-f][1,2,4]triazine-6,8-dione]: the EC50 is > 8.1 µM. In turn, `CN1C(=O)c2c(O)c(=O)ccn2N2C(c3ccccc3)C(CC(F)F)CCC12` (single isomer, unassigned) [Compound 129A, 2-(2,2-difluoroethyl)-7-hydroxy-5-methyl-1-phenyl-1,2,3,4,4a,5-hexahydrodipyrido[1,2-b:2′,1′-f][1,2,4]triazine-6,8-dione] gave an EC50 of 0.0023 µM. The same measure, in the same setting: with `CN1C(=O)c2c(O)c(=O)ccn2N2C(c3ccccc3)C(c3cc(F)c(F)cc3F)CCC12` (single isomer, unassigned) [Compound 86A, 7-hydroxy-5-methyl-1-phenyl-2-(2,4,5-trifluorophenyl)-1,2,3,4,4a,5-hexahydrodipyrido[1,2-b:2′,1′-f][1,2,4]triazine-6,8-dione] the figure was 0.0043 µM; with `CN1C(=O)c2c(O)c(=O)ccn2N2C1CCCC2(C)c1ccncc1` (single isomer, unassigned) [Compound 31A, 7-hydroxy-1,5-dimethyl-1-(pyridin-4-yl)-1,2,3,4,4a,5-hexahydrodipyrido[1,2-b:2′,1′-f][1,2,4]triazine-6,8-dione], 0.283 µM.

On to `CN1C(=O)c2c(O)c(=O)ccn2N2C1CCCC2(C)c1cccc(OC(F)F)c1` (single isomer, unassigned) [Compound 51A, 1-(3-(difluoromethoxy)phenyl)-7-hydroxy-1,5-dimethyl-1,2,3,4,4a,5-hexahydrodipyrido[1,2-b:2′,1′-f][1,2,4]triazine-6,8-dione], for which the EC50 is > 8.1 µM. On the same count and under the same terms, with `CN1C(=O)c2c(O)c(=O)ccn2N2C(c3cccc(F)c3)C(CC(F)(F)F)CCC12` (single isomer, unassigned) [Compound 121A, 1-(3-fluorophenyl)-7-hydroxy-5-methyl-2-(2,2,2-trifluoroethyl)-1,2,3,4,4a,5-hexahydrodipyrido[1,2-b:2′,1′-f][1,2,4]triazine-6,8-dione] the figure was 0.431 µM.

As for `CN1C(=O)c2c(O)c(=O)ccn2N2C(c3ccccc3)C(CC(F)F)CCC12` (single isomer, unassigned) [Compound 129D, 2-(2,2-difluoroethyl)-7-hydroxy-5-methyl-1-phenyl-1,2,3,4,4a,5-hexahydrodipyrido[1,2-b:2′,1′-f][1,2,4]triazine-6,8-dione], the EC50 is 0.092 µM. Same read-out and setting: the result for `Cc1ccccc1C1C(CC2CC2(F)F)CCC2N(C)C(=O)c3c(O)c(=O)ccn3N12` (single isomer, unassigned) [Compound 88C] reads 0.004 µM.

In the case of `COc1c2n(ccc1=O)N1C(c3ccccc3)C(SC(C)C)CCC1N(C)C2=O` (centres unmarked) [Compound 146B, 2-(isopropylthio)-7-methoxy-5-methyl-1-phenyl-1,2,3,4,4a,5-hexahydrodipyrido[1,2-b:2′,1′-f][1,2,4]triazine-6,8-dione], the EC50 was 0.237 µM.

For `CN1C(=O)c2c(O)c(=O)ccn2N2C1CCCC2(C)c1ccccc1F` (single isomer, unassigned) [Compound 24B, 1-(2-fluorophenyl)-7-hydroxy-1,5-dimethyl-1,2,3,4,4a,5-hexahydrodipyrido[1,2-b:2′,1′-f][1,2,4]triazine-6,8-dione], the EC50 amounted to 1.24 µM. Regarding `CN1C(=O)c2c(O)c(=O)ccn2N2C(c3ccccc3)C(CC(C)(F)F)CCC12` (single isomer, unassigned) [Compound 126B, 2-(2,2-difluoropropyl)-7-hydroxy-5-methyl-1-phenyl-1,2,3,4,4a,5-hexahydrodipyrido[1,2-b:2′,1′-f][1,2,4]triazine-6,8-dione], the EC50 was found to be 0.0161 µM. Turning to `CN1C(=O)c2c(O)c(=O)ccn2N2C1CCCC21CCc2ccccc21` (single isomer, unassigned) [Compound 21A, 7-hydroxy-5-methyl-2′,3,3′,4,4a,5-hexahydro-2H-spiro[dipyrido[1,2-b:2′,1′-f][1,2,4]triazine-1,1′-indene]-6,8-dione], the EC50 is > 8.1 µM. Turning to `CN1C(=O)c2c(O)c(=O)ccn2N2C1CCCC2(C)c1ccc(F)cc1` (single isomer, unassigned) [Compound 26B, 1-(4-fluorophenyl)-7-hydroxy-1,5-dimethyl-1,2,3,4,4a,5-hexahydrodipyrido[1,2-b:2′,1′-f][1,2,4]triazine-6,8-dione], the EC50 was 1.8 µM.

Regarding `CN1C(=O)c2c(O)c(=O)ccn2N2C(c3ccccc3)C3CCC(C3)C12` (single isomer, unassigned) [Compound 9D, 4-hydroxy-6-methyl-11-phenyl-6a,7,8,9,10,11-hexahydro-3H-7,10-methanopyrido[1′,2′:1,6][1,2,4]triazino[2,3-a]azepine-3,5(6H)-dione], the EC50 was > 8.1 µM. Regarding `CN1C(=O)c2c(O)c(=O)ccn2N2C(c3ccccc3)C(c3ccc(F)c(F)c3F)CCC12` (single isomer, unassigned) [Compound 85A, 7-hydroxy-5-methyl-1-phenyl-2-(2,3,4-trifluorophenyl)-1,2,3,4,4a,5-hexahydrodipyrido[1,2-b:2′,1′-f][1,2,4]triazine-6,8-dione], the EC50 is > 0.81 µM. `Cc1ccccc1C1N2C(CCC13CCC(F)(F)CC3)N(C)C(=O)c1c(O)c(=O)ccn12` (single isomer, unassigned) [Compound 70A, 4,4-difluoro-7′-hydroxy-5′-methyl-1′-(o-tolyl)-3′,4′,4a′,5′-tetrahydro-1′H-spiro[cyclohexane-1,2′dipyrido[1,2-b:2′,1′-f][1,2,4]triazine]-6′,8′-dione] gave an EC50 of 0.299 µM.

Still in this experiment, the particulars now being: MDCK, 48 h.
Regarding `CN1C(=O)c2c(O)c(=O)ccn2N2[C@H](c3ccccc3)[C@H](OCc3ccc(F)c(F)c3)CC[C@@H]12` [Compound 157, (1R,2R,4aS)-2-((3,4-difluorobenzyl)oxy)-7-hydroxy-5-methyl-1-phenyl-1,2,3,4,4a,5-hexahydrodipyrido[1,2-b:2′,1′-f][1,2,4]triazine-6,8-dione], a half-maximal response (EC50) required 0.336 µM.

As for `CN1C(=O)c2c(OCc3ccccc3)c(=O)ccn2N2C(c3ccccc3)CCCCCC12` (centres unmarked) [Compound 58A, 4-(benzyloxy)-6-methyl-12-phenyl-6,6a,7,8,9,10,11,12-octahydropyrido[1′,2′:1,6][1,2,4]triazino[2,3-a]azocine-3,5-dione], the EC50 is > 8.1 µM. Same read-out and setting: with `CS[C@H]1CC[C@@H](c2ccccc2)N2[C@@H]1N(C)C(=O)c1c(O)c(=O)ccn12` [Compound 147, (1S,4S,4aS)-7-hydroxy-5-methyl-4-(methylthio)-1-phenyl-1,2,3,4,4a,5-hexahydrodipyrido[1,2-b:2′,1′-f][1,2,4]triazine-6,8-dione] the figure was 0.0168 µM; with `CC(C)S[C@H]1CC[C@H]2N(C)C(=O)c3c(O)c(=O)ccn3N2[C@@H]1c1ccccc1` [Compound 143B], 0.0153 µM.
